# Measurements as given in patent US8962843B2, “1,3,4-oxadiazole and 1,3,4-thiadiazole beta-lactamase inhibitors” (priority 2012, dated 2015).
# Where a name gives a salt, the structure may show the parent alone.
# Assays:
# [1] = test system: bacterial strains that express the class D cephalosporinase OXA-15; test: Standard BLI potentiation MIC / synergy MIC assays, strains expressing OXA-15; format: cell-based, E. coli; details: in combination with a β-lactam; comparator Avibactam (CCC)
# Procedure, shortened: (§1)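 Broth microdilution in cation-adjusted Mueller Hinton broth per CLSI M07-A9, ~10^5 CFU/mL, 18-20 h at 37 °C with aeration; engineered E. coli carrying β-lactamase plasmids kept on 25 μg/mL tetracycline. β-lactam MIC measured in 2-fold dilutions (128-0.13 μg/mL) with BLI fixed at 4 μg/mL; sMIC titrates BLI against a fixed β-lactam concentration. MIC = lowest concentration without visible turbidity.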
# [2] = test system: bacterial strains that express KPC β-lactamases; test: Standard BLI potentiation MIC / synergy MIC assays, strains expressing KPC β-lactamases; format: cell-based; details: in combination with a β-lactam; comparator Avibactam
# Procedure, shortened: as §1
compound,measurement,setting,value
"N=C(N)NCC1(c2nnc([C@@H]3CC[C@@H]4CN3C(=O)N4OS(=O)(=O)O)o2)CC1 [Compound 723, (2S,5R)-2-(5-(1-(guanidinomethyl)cyclopropyl)-1,3,4-oxadiazol-2-yl)-7-oxo-1,6-diazabicyclo[3.2.1]octan-6-yl hydrogen sulfate]","activity against bacterial strains that express the class D cephalosporinase OXA-15, compared with Avibactam",[1],more active than Avibactam
same,"activity and/or spectrum of activity against bacterial strains that express KPC β-lactamases, compared with Avibactam",[2],"more active than Avibactam for at least one, bacterial strain that expresses KPC β-lactamase and/or show a better spectrum of activity"
